{"source": "paper PMC8264504", "about": "“Identification of Koumine as a Translocator Protein 18 kDa Positive Allosteric Modulator for the Treatment of Inflammatory and Neuropathic Pain” (Frontiers in Pharmacology, 2021)", "key": {"rat model of CIA": {"tested_on": "rat model of CIA", "test": "Collagen-induced arthritis (CIA) model, MWT and hind paw volume", "assay_type": "in vivo", "experimental": "The induction of CIA in Lewis rats followed protocols and used reagents supplied by Chondrex. Bovine type II collagen (2 mg/ml in 0.05 M acetic acid) was emulsified with incomplete Freund’s adjuvant (IFA; Sigma-Aldrich) using an electric homogenizer equipped with a small blade. Equal volumes of collagen and IFA were mixed in an ice water bath, and collagen was added dropwise to the IFA at 1,000–3,000 rpm. […] Lewis rats were anesthetized and received 0.2 ml of collagen emulsion by subcutaneous injection at the base of the tail. Booster injections were given on day 7 of the study with 0.1 ml of emulsion. Immunized rats received Ro5-4864, koumine or vehicle for seven consecutive days beginning from day 29 after the first collagen injection. The mechanical withdrawal threshold (MWT) was determined on day 29 and day 35, the hind paw volume was determined on day 35, and was measured 60 min following the MWT measurement. Koumine or vehicle was injected s. c., and MWT values were determined 60 min after koumine injection. Ro5-4864 or vehicle was injected i. p., and MWT was determined 50 min after Ro5-4864 injection. To determine whether koumine potentiated the effects of Ro5-4864, koumine (1.0 mg/kg, s. c.) or vehicle was injected 10 min before Ro5-4864 (0.0625–1.0 mg/kg, i. p.) injection, and the MWT was determined 50 min after the last injection. Animals were randomized for treatment and behavioral test were performed in a blinded manner. Mechanical allodynia and edema measurement were measured using the procedures described below. Only rats with mechanical withdrawal threshold scores (calculated by mechanical withdrawal threshold of immunized rats/mechanical withdrawal threshold of normal rats) on day 28 after the first collagen injection >0.75 were used in the study.\n(§1) Mechanical allodynia was measured using a commercially available electronic von Frey apparatus (Model 2,390; IITC Life Science Inc., Woodland Hills, CA) as described by Mitrirattanakul ([Mitrirattanakul et al., 2006]) with minor modifications. Rats were placed in a Plexiglas box on a steel mesh floor, and analyses were performed using an electronic von Frey apparatus. Stimulation was applied to the center of the hind paw in an upward motion of the von Frey filament until foot withdrawal occurred, and the withdrawal threshold was automatically recorded. The maximum strength of the filament used for von Frey testing was 55 g. The procedure was repeated three times at approximately 5 min intervals for each hind paw, and the MWT was calculated as the mean of the three latencies.\nArthritic edema was assessed by measuring the hind paw volume with a plethysmometer (Yi Yan Technology Development Co., Ltd.) according to the manufacturer’s recommendations."}, "rat model of CCI": {"tested_on": "rat model of CCI", "test": "Chronic constriction injury (CCI) model, MWT", "assay_type": "in vivo", "description": "(§2) The rat CCI model of neuropathic pain was produced according to the method described by Bennett and Xie ([Bennett and Xie, 1988]). Adult male SD rats were anesthetized by isoflurane delivered by using the anesthetic machine. The right common sciatic nerve was isolated at the mid-thigh level and loosely ligated using four chromic gut (4–0) ties separated by intervals of 1 mm. For sham surgeries, the right sciatic nerve was exposed using the same procedure, but the nerve was not ligated. On the 9th day after surgery, Ro5-4864 or vehicle (5% DMSO) was administered i. p. 50 min before the measurement of mechanical allodynia, and koumine was administered s. c. 60 min before the measurement of mechanical allodynia. To determine whether koumine potentiated the analgesic effects of Ro5-4864, koumine (0.28 mg/kg, s. c.) or vehicle was injected 10 min before Ro5-4864 (0.0625–1.0 mg/kg, i. p.) injection on day 9 after CCI surgery, and the MWT was determined 50 min after the last injection. Animals were randomized for treatment and behavioral test were performed in a blinded manner. Mechanical allodynia was measured using the procedures described below. Only rats with mechanical withdrawal threshold scores (calculated by CCI ipsilateral paw mechanical withdrawal threshold/contralateral paw mechanical withdrawal threshold) on day 8 after CCI surgery >0.75 were used in the study.\nas §1"}, "[1]": {"tested_on": "naïve and CCI sham-operated rats", "test": "MWT in naïve and CCI sham-operated rats", "assay_type": "in vivo, rat", "settings": "for MWT: given alone", "description": "as §2, with “Animals were randomized for treatment and behavioral test were performed in a blinded manner.” left out\nMechanical allodynia was measured using a commercially available electronic von Frey apparatus (Model 2,390; IITC Life Science Inc., Woodland Hills, CA) as described by Mitrirattanakul ([Mitrirattanakul et al., 2006]) with minor modifications. […] Stimulation was applied to the center of the hind paw in an upward motion of the von Frey filament until foot withdrawal occurred, and the withdrawal threshold was automatically recorded. […] The procedure was repeated three times at approximately 5 min intervals for each hind paw, and the MWT was calculated as the mean of the three latencies.\nFigure S5 Modulation of the in vivo efficacy of Ro5-4864 by koumine in the naïve and CCI sham rat model. […] Koumine (0.28 mg/kg) was injected s.c. 9 days after CCI sham surgery, the MWT was determined 60 min after koumine injection. […]"}, "[2]": {"tested_on": "T98G human glioblastoma cells", "test": "Cell proliferation assay (BrdU ELISA)", "assay_type": "cell-based", "experimental": "T98G cells were plated at 1 × 10^4 cells/well in 96-well plates. […] After 48 h of drug exposure, proliferation was indexed using a BrdU ELISA Kit (Roche Molecular Diagnostics) according to the manufacturer’s protocol, and absorption was measured at 370 nm (reference wavelength 492 nm)."}, "[3]": {"tested_on": "T98G human glioblastoma cells", "test": "Cell viability assay (CellTiter Blue)", "assay_type": "cell-based", "settings": "same dosing regimen as proliferation, 48 h", "experimental": "T98G cells were plated and treated as in the proliferation assays. After 48 h of drug exposure, CellTiter Blue Reagent (Promega) was added to the cells and incubated for 4 h in 5% CO2 at 37°C. Absorption was measured at 570 nm using 600 nm as a reference wavelength."}, "rat C6 glioma cells": {"tested_on": "rat C6 glioma cells", "test": "Pregnenolone production", "assay_type": "cell-based", "settings": "for EC50: read-out: EC50, pregnenolone production"}, "[4]": {"settings": "acute administration alone on day 29"}, "[5]": {"settings": "given alone daily day 29 to day 35, MWT on day 35"}}, "note": "Like-named read-outs stand apart in the source and are kept apart here.", "data": [{"compound": "CN1C(=O)CN=C(c2ccc(Cl)cc2)c2cc(Cl)ccc21", "note": "[Ro5-4864, reference compound]", "values": [{"measurement": "paw edema (hind paw volume)", "setting": "rat model of CIA; Ro5-4864 alone at the highest dose tested, daily day 29 to day 35 i.p., day 35", "value": "significantly inhibited paw edema"}, {"measurement": "mechanical allodynia (MWT)", "setting": "rat model of CIA; [4]", "value": "reduced mechanical allodynia"}, {"measurement": "mechanical allodynia (MWT)", "setting": "rat model of CIA; [5]", "value": "clearly reduced mechanical allodynia"}, {"measurement": "CCI-induced mechanical allodynia (MWT)", "setting": "rat model of CCI; Ro5-4864 alone 0.0625–1.0 mg/kg i.p., 9 days after surgery", "value": "inhibited CCI-induced mechanical allodynia in a dose-dependent manner"}, {"measurement": "MWT", "setting": "[1]", "value": "Neither Ro5-4864 nor koumine altered the MWT"}, {"measurement": "EC20 concentration, inhibition of cell proliferation", "setting": "[2]; 48 h, BrdU", "value": "~23", "unit": "µM"}, {"measurement": "EC50", "setting": "[2]; 48 h, BrdU, read-out: EC50, inhibition of cell proliferation", "value": 66, "unit": "µM"}, {"measurement": "cell viability", "setting": "[3]", "value": "not significantly affected"}, {"measurement": "EC20 concentration, pregnenolone production", "setting": "rat C6 glioma cells", "value": "~11", "unit": "µM"}, {"measurement": "increase in pregnenolone production", "setting": "rat C6 glioma cells", "value": "approximately 50%"}, {"measurement": "EC50", "setting": "rat C6 glioma cells", "value": 29, "unit": "µM"}]}, {"compound": "C=C[C@@]12CN(C)[C@H]3C[C@]14C(=Nc1ccccc14)[C@H]1C[C@@H]2[C@@H]3CO1", "note": "[koumine]", "values": [{"measurement": "mechanical allodynia (MWT)", "setting": "rat model of CIA; [4]", "value": "dose-dependent inhibition effect"}, {"measurement": "modulation of Ro5-4864 antinociceptive effect (MWT)", "setting": "rat model of CIA; acute coadministration of 1.0 mg/kg koumine s.c. and Ro5-4864 i.p., day 29", "value": "clearly augmented the antinociceptive effect"}, {"measurement": "mechanical allodynia (MWT)", "setting": "rat model of CIA; [5]", "value": "clearly reduced mechanical allodynia"}, {"measurement": "modulation of Ro5-4864-mediated anti-edematogenic effect (hind paw volume)", "setting": "rat model of CIA; koumine 1.0 mg/kg s.c. coadministered with Ro5-4864 0.25 mg/kg i.p., successive administration, day 35", "value": "notably increased"}, {"measurement": "modulation of Ro5-4864-mediated analgesic effect (MWT)", "setting": "rat model of CIA; koumine 1.0 mg/kg s.c. coadministered with Ro5-4864 0.125–1.0 mg/kg i.p., successive administration, day 35", "value": "notably increased"}, {"measurement": "paw edema (hind paw volume)", "setting": "rat model of CIA; koumine alone daily day 29 to day 35 s.c., day 35", "value": "did not produce an anti-edematogenic effect"}, {"measurement": "modulation of Ro5-4864-mediated antinociceptive activity (MWT)", "setting": "rat model of CCI; 0.28 mg/kg koumine s.c. 10 min before 0.0625–0.5 mg/kg Ro5-4864 i.p., day 9", "value": "significantly augmented"}, {"measurement": "notable antinociceptive effect on CCI-induced mechanical allodynia (MWT)", "setting": "rat model of CCI; koumine alone 0.28 mg/kg s.c., day 9", "value": "not"}, {"measurement": "CCI-induced mechanical allodynia (MWT)", "setting": "rat model of CCI; koumine alone 1.4 and 7.0 mg/kg s.c., day 9", "value": "notable antinociceptive effects"}, {"measurement": "MWT", "setting": "[1]", "value": "Neither Ro5-4864 nor koumine altered the MWT"}, {"measurement": "modulation of antinociceptive effect of Ro5-4864 (MWT)", "setting": "[1]; koumine 0.28 mg/kg s.c. before Ro5-4864 i.p.", "value": "could not significantly augment"}, {"measurement": "shift of PK11195 concentration-response curve", "setting": "[2]; 316.3 μM koumine", "value": "produced a leftward shift in the potency"}, {"measurement": "shift of Ro5-4864 concentration-response curve", "setting": "[2]; 400 μM koumine", "value": "produced a leftward shift in the potency"}, {"measurement": "cell proliferation", "setting": "[2]; koumine on its own at 1–600 μM", "value": "did not affect"}, {"measurement": "modulation of inhibition of proliferation", "setting": "[2]; koumine with an EC20 concentration of PK11195 (∼75 μM)", "value": "significantly increased the inhibition of proliferation"}, {"measurement": "modulation of inhibition of proliferation", "setting": "[2]; koumine with an EC20 concentration of Ro5-4864 (∼23 μM)", "value": "significantly increased the inhibition of proliferation"}, {"measurement": "cell viability", "setting": "[3]", "value": "not significantly affected"}, {"measurement": "EC50", "setting": "rat C6 glioma cells; Rattus norvegicus, C6 glioma, 2 h", "value": 270, "unit": "µM"}, {"measurement": "Emax", "setting": "rat C6 glioma cells; Rattus norvegicus, C6 glioma, 2 h, read-out: Emax, pregnenolone production", "value": 33, "unit": "%"}, {"measurement": "modulation of pregnenolone production activity", "setting": "rat C6 glioma cells; koumine with an EC20 concentration of PK11195 (∼27 μM)", "value": "did not significantly increase"}, {"measurement": "modulation of pregnenolone production activity", "setting": "rat C6 glioma cells; koumine with an EC20 concentration of Ro5-4864 (∼11 μM)", "value": "did not significantly increase"}]}]}
